We go through 30 molecules from ChEMBL document CHEMBL2429729, “Synthesis, biological evaluation, and molecular modeling of (E)-2-aryl-5-styryl-1,3,4-oxadiazole derivatives as acetylcholine esterase inhibitors” (Med Chem Res, 2013).

As a reminder, the IC50 is the point on the concentration scale where inhibition reaches its midpoint.

Acetylcholinesterase, sequence (O42275 whole entry): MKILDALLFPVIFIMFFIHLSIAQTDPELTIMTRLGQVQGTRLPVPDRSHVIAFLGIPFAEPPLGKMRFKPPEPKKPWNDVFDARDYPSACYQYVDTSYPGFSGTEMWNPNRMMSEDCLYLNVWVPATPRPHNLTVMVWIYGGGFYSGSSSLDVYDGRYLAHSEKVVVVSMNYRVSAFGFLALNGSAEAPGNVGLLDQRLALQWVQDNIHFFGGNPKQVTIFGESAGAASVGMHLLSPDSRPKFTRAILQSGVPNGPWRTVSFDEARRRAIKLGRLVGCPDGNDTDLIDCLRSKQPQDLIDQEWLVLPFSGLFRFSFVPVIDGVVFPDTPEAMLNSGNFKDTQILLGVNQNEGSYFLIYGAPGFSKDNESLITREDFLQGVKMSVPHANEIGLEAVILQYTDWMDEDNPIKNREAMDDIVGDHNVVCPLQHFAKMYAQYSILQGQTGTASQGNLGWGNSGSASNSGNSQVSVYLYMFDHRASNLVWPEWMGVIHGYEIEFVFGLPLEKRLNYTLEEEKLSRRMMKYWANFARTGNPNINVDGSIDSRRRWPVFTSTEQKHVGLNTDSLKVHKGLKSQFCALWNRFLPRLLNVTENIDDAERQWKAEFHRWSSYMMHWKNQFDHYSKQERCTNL

The test concerns the target Acetylcholinesterase (Electrophorus electricus, UniProt O42275). The test can be described thus: Inhibition of electric eel AChE using acetylthiocholine as substrate incubated for 20 mins prior to substrate addition measured every 30 secs for 4 mins by Ellman's method. (DTNB colorimetry detects thiols as they appear.)
As for `O=[N+]([O-])c1cccc(-c2nnc(/C=C/c3ccc4c(c3)OCO4)o2)c1`, inhibition was half-maximal at 49.4 µM (IC50).
Consider `COc1cc(/C=C/c2nnc(-c3cccnc3)o2)cc(OC)c1OC`, for which the IC50 amounted to 65 µM.
With `COc1cc(/C=C/c2nnc(-c3cc(OC)c(OC)c(OC)c3)o2)cc(OC)c1OC`, the IC50 worked out at 61.5 µM.
In the case of `COc1ccc(-c2nnc(/C=C/c3ccc4c(c3)OCO4)o2)cc1OC`, the IC50 worked out at 40.5 µM.
Consider `COc1cc(/C=C/c2nnc(-c3ccc([N+](=O)[O-])cc3)o2)cc(OC)c1OC`, for which the IC50 amounted to 49 µM.
`Cc1ccc(-c2nnc(/C=C/c3ccc4c(c3)OCO4)o2)cc1` registered an IC50 of 45.3 µM.
Under `COc1cc(/C=C/c2nnc(-c3ccco3)o2)cc(OC)c1OC` stands 13.7 µM; under `COc1cc(/C=C/c2nnc(-c3ccccc3)o2)cc(OC)c1OC`, 24.9 µM.
`C(=C\c1nnc(-c2ccccc2)o1)/c1ccc2c(c1)OCO2` displayed an IC50 of 50.1 µM.
In turn, `O=[N+]([O-])c1ccc(-c2nnc(/C=C/c3ccc4c(c3)OCO4)o2)cc1` registered an IC50 of 37.6 µM.
Molecule `COc1ccc(-c2nnc(/C=C/c3ccc4c(c3)OCO4)o2)cc1` came in with an IC50 of 42.8 µM.
Consider `C(=C\c1nnc(-c2cccnc2)o1)/c1ccc2c(c1)OCO2`, for which it took 48.5 µM to reach half-maximal inhibition (IC50).
As for `Fc1ccc(-c2nnc(/C=C/c3ccc4c(c3)OCO4)o2)cc1Cl`, 49.6 µM corresponded to half-maximal inhibition (IC50).
The molecule `COc1cc(/C=C/c2nnc(-c3ccccc3Br)o2)cc(OC)c1OC` yielded an IC50 of 64.9 µM.
`Brc1cncc(-c2nnc(/C=C/c3ccc4c(c3)OCO4)o2)c1` yielded an IC50 of 52.5 µM.
Then `COc1cc(/C=C/c2nnc(-c3cc4ccccc4o3)o2)cc(OC)c1OC`, with 60.4 µM; and `Clc1ccc(-c2nnc(/C=C/c3ccc4c(c3)OCO4)o2)c(Cl)c1`, with 50.3 µM; and `Fc1ccc(-c2nnc(/C=C/c3ccc4c(c3)OCO4)o2)c(Cl)c1`, with 19.6 µM.
`COc1cc(/C=C/c2nnc(-c3cncc(Br)c3)o2)cc(OC)c1OC` displayed an IC50 of 62.8 µM.
With `COc1cc(/C=C/c2nnc(-c3ccccc3Cl)o2)cc(OC)c1OC`, the IC50 is 58.1 µM.
`Clc1ncccc1-c1nnc(/C=C/c2ccc3c(c2)OCO3)o1` had an IC50 of 54.3 µM.
Molecule `COc1cc(/C=C/c2nnc(-c3cccc([N+](=O)[O-])c3)o2)cc(OC)c1OC` came in with an IC50 of 65.8 µM.
Consider `COc1cc(/C=C/c2nnc(-c3ccc(Cl)cc3Cl)o2)cc(OC)c1OC`, for which the IC50 worked out at 62.2 µM.
`Clc1ccccc1-c1nnc(/C=C/c2ccc3c(c2)OCO3)o1` gave a half-maximal inhibitory concentration (IC50) of 47.4 µM.
The molecule `COc1cc(-c2nnc(/C=C/c3ccc4c(c3)OCO4)o2)cc(OC)c1OC` displayed an IC50 of 48.6 µM.
`COc1cc(/C=C/c2nnc(-c3ccc(C)cc3)o2)cc(OC)c1OC` returned an IC50 of 60.2 µM.
Then `COc1cc(/C=C/c2nnc(-c3ccc(F)cc3Cl)o2)cc(OC)c1OC`, with 60.2 µM; and `Brc1ccccc1-c1nnc(/C=C/c2ccc3c(c2)OCO3)o1`, with 40.2 µM.
As for `COc1ccc(-c2nnc(/C=C/c3cc(OC)c(OC)c(OC)c3)o2)cc1`, 61.2 µM corresponded to half-maximal inhibition (IC50).
Take `COc1cc(/C=C/c2nnc(-c3cccnc3Cl)o2)cc(OC)c1OC`: the IC50 is 61.2 µM.
